Values of other authors as cited in US10113200B2, “Genes associated with dasatinib sensitivity” (MEMORIAL SLOAN-KETTERING CANCER CENTER, priority 2012, dated 2018).

System: patients with chronic phase CML
Conditions: 100 mg once-daily compared with 70 mg twice-daily

Structure (SMILES): Cc1nc(Nc2ncc(C(=O)Nc3c(C)cccc3Cl)s2)cc(N2CCN(CCO)CC2)n1 [dasatinib]
- safety profile: improves the safety profile, particularly decreasing pleural effusion and thrombocytopenia, while maintaining efficacy
